Results published in US11135196B1, “Pharmaceutical composition and its use to inhibit membrane ACE2 expression” (priority 2020, dated 2021).

Assays:
ACE2 receptor [1] = experiment: ACE2 ELISA assay in Human Small Airways Epithelial Cells (SAEC), 6 days; settings: for decrease of ACE2 expression: FIG. 5A
Procedure: Human Small Airways Epithelial Cells (SAEC), purchased from ATCC, (Manassas, Va., USA) were cultured in Airways Epithelial Cells growth medium (ATCC) in plastic flasks at 37° C. and 5% CO2. For the experiments, the cells (passage 5-7) were plated to collagen-covered 96-well plates in 100 μL/well growth medium and were grown to confluent layer for 4 to 7 days.
For the experiments, cells were supplemented with indicated doses of tested compounds in 100 μL/well of cell growth medium for 6 days with fresh media supplementations every 2 to 3 days. […] Culture plate wells were washed twice with phosphate buffered saline (PBS) and fixed with 3% formaldehyde/0.5% Triton X-100/PBS solution for 1 hour at 4° C., then washed 4 times with PBS. Two-hundred microliter of 1% bovine serum albumin-BSA (Sigma-Aldrich, St. Louis, Mo., USA) in PBS was added and the plate was incubated at 4° C. overnight. Rabbit polyclonal anti-ACE-2 antibodies (Sigma Aldrich, St. Louis, Mo., USA) were added in 100 μL/well 1% BSA/PBS solution for 1.5 hours incubation at room temperature (RT). After 3 wash cycles with 0.1% BSA/PBS wells were supplied with 100 μL/well of anti-rabbit IgG antibodies conjugated with horse radish peroxidase (HRP, Sigma, St. Louis, Mo., USA) for 1 hour at RT. After 3 wash cycles with 0.1% BSA/PBS the HRP activity retained was determined by incubation with 100 μL/well TMB substrate solution (Sigma-Aldrich, St. Louis, Mo., USA) for 20 minutes. at RT, followed by the addition of 50 μL/well of 1N H2504 and optical density measurement at 450 nm with microplate reader (Molecular Devices, San Jose, Calif., USA).
Results are expressed as a percentage of experimental addition—free control (mean±SD, n=6). Non-specific control (wells incubated without anti-ACE2 antibodies) mean value (n=6) was subtracted from all sample values.

ACE2 protein [2] = experiment: Western blot of ACE2 protein expression in HMEC; settings: 1.0 mM, 6 days
Procedure: (§2) Human Small Airways Epithelial Cells (SAEC), purchased from ATCC, (Manassas, Va., USA) were cultured in Airways Epithelial Cells growth medium (ATCC) in plastic flasks at 37° C. and 5% CO2. For the experiments, the cells (passage 5-7) were plated to collagen-covered 96-well plates in 100 μL/well growth medium and were grown to confluent layer for 4 to 7 days. Human Microvascular Endothelial Cells isolated from lung (HMEC), purchased from Lonza, (Hayward, Calif., USA) were cultured in EGM-2 MV growth medium (Lonza) in plastic flasks at 37° C. and 5% CO2. […]
(§3) Western blot: SAEC and HMEC were plated on 6-well plates and supplemented with 0.3, 0.6, 0.8, and 1 mM ascorbic acid, respectively. […] The protein concentration was measured by the Dc protein assay (Bio-Rad, Hercules, Calif., USA). Fifty microgram per well of protein was separated on 8% to 16% gradient SDS-PAGE gels (ie, Tris-based electrophoresis using standard Laemmle's method without (3-ME addition to sample buffer) and transferred to a PVDF membrane. Proteins were detected with commercially available anti-ACE-2 monoclonal antibody diluted 1:250 (R&D, Minneapolis, Minn., USA) and anti-β-actin antibody as a loading control (Cell Signaling, Danvers, Mass., USA).

ACE2 mRNA [3] = experiment: qRT-PCR of ACE2 gene expression in SAEC; assay type: cell-based, human; settings: 1.0 mM, 6 days, normalised to β-actin
Procedure: (§1) After 6 days, total RNA was isolated using RNeasy Plus Mini Kit (Qiagen, Germantown, Md., USA). Next, 2500 ng of each isolate was transcribed in cDNA using RT^2 HT First Strand Kit (Qiagen, Germantown, Md., USA) and subjected to qRTPCR using specific primers for ACE2 (forward primer, SEQ ID. NO. 1-5′-[…] -3′; and reverse primer, SEQ ID. NO. 2-5′-[…] -3) and β-actin (forward primer, SEQ ID. NO. 3-5′-[…] -3′; and reverse primer, SEQ ID. NO. 4-5′-[…] -3′). The PCR was performed with a QuantiTect SYBR® Green PCR Kit as the source of 2.5 mM Mg2+, deoxynucleotides and HotStarTaq DNA polymerase, in addition to each primer used at a concentration of 0.3 μM in a 50 μL qPCR mixture (Qiagen, Germantown, Md., USA) in a BioRad CFX instrument (BioRad, Hercules, Calif., USA). The qPCR cycler conditions were programmed according to the manufacturer's recommendations and were as follows: an activation step at 95° C. for 15 minutes, 40 cycles of: denaturation at 94° C. for 15 seconds, annealing at 60° C. for 30 seconds, and extension at 72° C. for 30 seconds. To verify the specificity and identity of the qPCR product, melting curve analyses were performed. The amount of β-actin cDNA was used to normalize the sample amounts used for determinations. All samples were tested in duplicate PCR reactions and the mean of the reactions was used for calculating the expression levels.

ACE2 receptor [4] = experiment: ACE-2 ELISA assay in Human Aortic Endothelial Cells, 7 days supplementation; assay type: cell-based; settings: 50-100 mcM, FIG. 1
Procedure: Cell supplementation with ascorbic acid: Cells were supplemented with indicated doses of ascorbic acid (Sigma) in EGM-2 for 7 days with six repetitions for each dose. Experimental medium was changed every 2-3 days with freshly prepared ascorbic acid solution in EGM-2.
Mouse monoclonal anti ACE-2 antibody (Santa Cruz Biotechnology) was added in 100 mcl 1% BSA/PBS for 1.5 h incubation at room temperature (RT). […] After three wash cycles with 0.1% BSA/PBS retained HRP activity was determined by incubation 100 mcl TMB substrate solution (Sigma) for 20 min at RT and addition of 50 mcl of 1N H2SO4 by measuring optical density at 450 nm with micro plate reader (Molecular Devices). Results are expressed as percentage of ascorbate-free Control (mean+/−SD, n=6).

ACE2 mRNA [5] = experiment: qRT-PCR of ACE2 gene expression in HMEC; assay type: cell-based, human; settings: 1.0 mM, 6 days, normalised to β-actin
Procedure: as §1

ACE2 protein [6] = experiment: Western blot of ACE2 protein expression in SAEC; settings: 1.0 mM, 6 days
Procedure: as §2, §3

SAEC = experiment: Cytotoxic effects on SAEC; assay type: cell-based, human

C=CCCCCCCCCC(=O)O [10-undecanoic acid]
decrease of ACE2 expression, individual effect (ACE2 receptor [1]; concentration not given, FIG. 9): 18%

CC(=O)N[C@@H](CS)C(=O)O [NAC]
inhibition of ACE2 expression, used individually (ACE2 receptor [1]; 2 mM): 18%

O=c1c(O)cc([C@H]2Oc3cc(O)cc(O)c3C[C@H]2O)cc2c([C@H]3Oc4cc(O)cc(O)c4C[C@H]3O)cc(O)c(O)c12 [Theaflavin]
inhibition of ACE2 expression, used individually (ACE2 receptor [1]; 33 μg/mL and 50 μM respectively, FIG. 10): about 50%

O=C1O[C@H]([C@@H](O)CO)C(O)=C1O [ascorbic acid]
reduction of ACE2 protein (Western blot) (ACE2 protein [2]): 60% | reduction of ACE2 protein (Western blot) (ACE2 protein [2]; listed as ascorbate): significantly lower | decrease of ACE2 expression (ACE2 receptor [1]; 0.6 mM): about 18% | decrease of ACE2 expression (ACE2 receptor [1]; 1.0 mM): 27% | decrease of membrane expression of ACE2 (ACE2 receptor [1]; 800 mcM, FIG. 4): 27% | ACE2 gene expression decreased by (fold) (ACE2 mRNA [3]): 0.61 fold | suppression of the expression of the ACE2 receptor (ACE2 receptor [4]): over 50% | ACE2 gene expression decreased by (fold) (ACE2 mRNA [5]): 0.54 fold | reduction of ACE2 protein (Western blot) (ACE2 protein [6]): 55% | reduction of ACE2 protein (Western blot) (ACE2 protein [6]; listed as ascorbate): significantly lower

CCCCCCCCCCCCCCCC(=O)OC[C@H](O)[C@H]1OC(=O)C(O)=C1O [ascorbyl palmitate]
inhibition of ACE2 expression (ACE2 receptor [1]; 75 μM, FIG. 5B): 50% | concentrations showing cytotoxic effects (SAEC): > 100 µM

O=c1cc(-c2ccccc2)oc2cc(O)c(O)c(O)c12 [baicalein]
inhibition of ACE2 expression, used individually (ACE2 receptor [1]; 25 μM, compared to no ascorbate control, FIG. 7): 75%
